Results reported in ChEMBL document CHEMBL1131731, “Synthesis and evaluation of hapalosin and analogs as MDR-reversing agents” (Bioorg Med Chem Lett, 1999).

Biological target: ATP-dependent translocase ABCB1 (P-glycoprotein) (Homo sapiens, UniProt P08183)
Assay: (§1) Ratio of IC50 of cytotoxicity to the IC50 of MDR- reversal for P388/VMDRC.04 cells
Format: functional, cell-based
Details: mouse, P388/VMDRC.04 cells

Chain of ATP-dependent translocase ABCB1 (P-glycoprotein) (P08183 whole entry): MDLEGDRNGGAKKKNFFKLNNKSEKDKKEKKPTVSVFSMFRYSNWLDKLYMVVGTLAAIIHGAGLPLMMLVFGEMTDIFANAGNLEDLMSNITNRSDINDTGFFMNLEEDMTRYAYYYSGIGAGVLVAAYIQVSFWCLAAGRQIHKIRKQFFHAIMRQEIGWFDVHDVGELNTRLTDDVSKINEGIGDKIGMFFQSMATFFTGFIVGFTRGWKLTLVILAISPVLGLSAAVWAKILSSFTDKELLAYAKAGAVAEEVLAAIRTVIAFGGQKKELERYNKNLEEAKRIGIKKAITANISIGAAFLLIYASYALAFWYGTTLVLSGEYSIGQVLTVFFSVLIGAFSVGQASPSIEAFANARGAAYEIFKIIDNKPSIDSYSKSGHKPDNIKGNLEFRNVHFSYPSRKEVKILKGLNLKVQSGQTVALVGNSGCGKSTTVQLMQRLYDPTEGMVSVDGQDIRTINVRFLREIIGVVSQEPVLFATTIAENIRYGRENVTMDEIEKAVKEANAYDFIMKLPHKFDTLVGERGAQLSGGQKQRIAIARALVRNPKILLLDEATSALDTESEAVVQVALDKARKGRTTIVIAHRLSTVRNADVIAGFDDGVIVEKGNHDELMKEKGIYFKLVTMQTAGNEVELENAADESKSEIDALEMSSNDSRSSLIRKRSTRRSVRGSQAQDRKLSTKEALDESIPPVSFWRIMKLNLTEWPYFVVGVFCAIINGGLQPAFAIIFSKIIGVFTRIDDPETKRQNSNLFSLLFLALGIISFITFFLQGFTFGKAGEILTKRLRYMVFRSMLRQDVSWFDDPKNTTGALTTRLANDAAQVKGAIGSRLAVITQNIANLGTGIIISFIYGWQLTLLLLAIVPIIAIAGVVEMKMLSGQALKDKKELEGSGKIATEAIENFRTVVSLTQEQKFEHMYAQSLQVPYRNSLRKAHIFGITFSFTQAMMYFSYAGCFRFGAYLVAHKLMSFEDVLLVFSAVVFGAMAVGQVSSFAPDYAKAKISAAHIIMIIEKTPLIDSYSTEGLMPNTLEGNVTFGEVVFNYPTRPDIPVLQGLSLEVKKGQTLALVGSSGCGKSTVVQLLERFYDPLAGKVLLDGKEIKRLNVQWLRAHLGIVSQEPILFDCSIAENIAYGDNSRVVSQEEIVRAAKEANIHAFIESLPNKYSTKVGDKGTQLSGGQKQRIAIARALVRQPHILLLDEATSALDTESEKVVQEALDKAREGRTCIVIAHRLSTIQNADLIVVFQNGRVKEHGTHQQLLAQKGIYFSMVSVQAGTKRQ

**Q.** For `CCCCCCC[C@H]1OC(=O)C[C@H](O)[C@H](Cc2ccccc2)N(C)C(=O)[C@H](C(C)C)OC(=O)[C@H]1C` [listing 1 of 2 here], which selectivity ratio is on record?
**A.** The selectivity ratio was 5.4.

**Q.** For `CCCC[C@H]1OC(=O)C[C@H](O)[C@H](Cc2ccccc2)N(C)C(=O)COC(=O)[C@H]1C`, which selectivity ratio is on record?
**A.** Its selectivity ratio is > 4.4.

**Q.** For `CCCCCCC[C@H]1OC(=O)C[C@@H](O)[C@H](Cc2ccccc2)N(C)C(=O)COC(=O)[C@H]1C`, which selectivity ratio is on record?
**A.** Its selectivity ratio is 3.8.

**Q.** For `CCCCCCC[C@H]1OC(=O)C[C@H](O)[C@H](Cc2ccccc2)N(C)C(=O)[C@H](C(C)C)OC(=O)[C@H]1C` [listing 2 of 2 here], which selectivity ratio is on record?
**A.** Its selectivity ratio is 7.4.

**Q.** With `COCO[C@@H]1CC(=O)O[C@H](C)[C@H](C)C(=O)O[C@@H](C(C)C)C(=O)N(C)[C@H]1Cc1ccccc1` as the compound, how does the selectivity ratio read?
**A.** The selectivity ratio was > 10.

**Q.** With `CCCCCCC[C@H]1OC(=O)C[C@H](O)[C@H](Cc2ccccc2)N(C)C(=O)C(C)(C)OC(=O)[C@H]1C` as the compound, how does the selectivity ratio read?
**A.** The selectivity ratio was 6.6.

**Q.** For `CCCCCCC[C@@H]1CC(=O)O[C@@H](C(C)C)C(=O)N(C)[C@@H](Cc2ccccc2)[C@H](O)CC(=O)O1`, which selectivity ratio is on record?
**A.** The selectivity ratio was 3.8.

**Q.** For `CC(C)[C@@H]1OC(=O)[C@@H](C)[C@@H](C)OC(=O)C[C@@H](O)[C@H](Cc2ccccc2)N(C)C1=O`, which selectivity ratio is on record?
**A.** Its selectivity ratio is > 9.

**Q.** Which selectivity ratio does the source give for `COC(=O)C[C@@H](O)[C@H](Cc1ccccc1)N(C)C(=O)OCc1ccccc1` here?
**A.** Its selectivity ratio is 5.2.

**Q.** For `COCO[C@H]1CC(=O)O[C@H](C)[C@H](C)C(=O)OCC(=O)N(C)[C@H]1Cc1ccccc1`, which selectivity ratio is on record?
**A.** The selectivity ratio was > 2.3.

**Q.** For `CC(C)[C@@H]1OC(=O)[C@@H](C)COC(=O)C[C@@H](O)[C@H](Cc2ccccc2)N(C)C1=O`, which selectivity ratio is on record?
**A.** The selectivity ratio was > 7.5.

**Q.** For `CCCCCCC[C@@H]1CC(=O)O[C@@H](C(C)C)C(=O)N(C)[C@@H](Cc2ccccc2)[C@H](OCOC)CC(=O)O1`, which selectivity ratio is on record?
**A.** Its selectivity ratio is 5.7.

**Q.** For `CCCC[C@H]1OC(=O)C[C@H](OCOC)[C@H](Cc2ccccc2)N(C)C(=O)COC(=O)[C@H]1C`, which selectivity ratio is on record?
**A.** Its selectivity ratio is > 8.5.

**Q.** Which selectivity ratio does the source give for `COCO[C@H](CC(=O)OC)[C@H](Cc1ccccc1)N(C)C(=O)OCc1ccccc1` here?
**A.** The selectivity ratio was 5.7.

**Q.** Which selectivity ratio does the source give for `CCCCCCC[C@H]1OC(=O)C[C@@H](OCOC)[C@H](Cc2ccccc2)N(C)C(=O)COC(=O)[C@H]1C` here?
**A.** The selectivity ratio was 6.5.

**Q.** With `CCCCCCC[C@H]1OC(=O)C[C@@H](OCOC)[C@H](Cc2ccccc2)N(C)C(=O)[C@H](C)OC(=O)[C@H]1C` as the compound, how does the selectivity ratio read?
**A.** The selectivity ratio was 3.2.

**Q.** For `CCCCCCC[C@H]1OC(=O)C[C@H](OCOC)[C@H](Cc2ccccc2)N(C)C(=O)C(C)(C)OC(=O)[C@H]1C`, which selectivity ratio is on record?
**A.** The selectivity ratio was 3.5.

**Q.** Which selectivity ratio does the source give for `COCO[C@@H]1CC(=O)OC[C@H](C)C(=O)O[C@@H](C(C)C)C(=O)N(C)[C@H]1Cc1ccccc1` here?
**A.** The selectivity ratio was > 15.9.

**Q.** With `CCCCCCC[C@H]1OC(=O)CC[C@H](Cc2ccccc2)N(C)C(=O)[C@H](C(C)C)OC(=O)[C@H]1C` as the compound, how does the selectivity ratio read?
**A.** The selectivity ratio was 5.6.

**Q.** With `CCCCCCC[C@@H](O)[C@H](C)C(=O)O[C@H](C(=O)OC)C(C)C` as the compound, how does the selectivity ratio read?
**A.** Its selectivity ratio is > 5.2.

**Q.** For `CCCCCCC[C@H]1OC(=O)C[C@@H](OCOC)[C@H](Cc2ccccc2)N(C)C(=O)[C@H](C(C)C)OC(=O)[C@H]1C`, which selectivity ratio is on record?
**A.** Its selectivity ratio is 5.7.

**Q.** For `CCCCCCC[C@H]1OC(=O)C[C@@H](O)[C@H](Cc2ccccc2)N(C)C(=O)[C@H](C)OC(=O)[C@H]1C`, which selectivity ratio is on record?
**A.** Its selectivity ratio is 4.3.

**Q.** Which selectivity ratio does the source give for `CCCCCCC[C@H]1OC(=O)C[C@H](OCOC)[C@H](Cc2ccccc2)N(C)C(=O)[C@H](C(C)C)OC(=O)[C@H]1C` (stereo in doubt; 14) here?
**A.** The selectivity ratio was 7.5.

**Q.** With `CCCCCCC[C@H]1OC(=O)C[C@@H](O)[C@H](Cc2ccccc2)N(C)C(=O)[C@H](C(C)C)OC(=O)[C@H]1C` [HAPALOSIN] as the compound, how does the selectivity ratio read?
**A.** Its selectivity ratio is 3.

Biological target: ATP-dependent translocase ABCB1 (Homo sapiens, UniProt P08183)
Sequence (P08183 whole entry): as above
Assay: as §1
Format: functional, cell-based
Details: mouse

**Q.** Which Ratio does the source give for `CCCCCCC[C@H]1OC(=O)C[C@H](OCOC)[C@H](Cc2ccccc2)N(C)C(=O)[C@H](C(C)C)OC(=O)[C@H]1C` (stereo in doubt; 22) here?
**A.** Its Ratio is 6.2.

Biological target: not listed separately
Assay: Evaluated for cytotoxicity using P388/VMDRC.04 cells (a subline of P388 murine leukemia cells expressing human recombinant human P-glycoprotein) in the absence of 10 nM vincristine
Details: not given

**Q.** For `CC(C)[C@@H]1OC(=O)[C@@H](C)COC(=O)C[C@@H](O)[C@H](Cc2ccccc2)N(C)C1=O`, which IC50 is on record?
**A.** Its IC50 is > 100 µM.

**Q.** Which IC50 does the source give for `CCCCCCC[C@@H](O)[C@H](C)C(=O)OC` here?
**A.** The IC50 was > 100 µM.

**Q.** For `CCCC[C@H]1OC(=O)C[C@H](OCOC)[C@H](Cc2ccccc2)N(C)C(=O)COC(=O)[C@H]1C`, which IC50 is on record?
**A.** The IC50 was > 100 µM.

**Q.** Which IC50 does the source give for `CCCCCCC[C@H]1OC(=O)C[C@@H](OCOC)[C@H](Cc2ccccc2)N(C)C(=O)[C@H](C(C)C)OC(=O)[C@H]1C` here?
**A.** Its IC50 is 34.9 µM.
